18 compounds from patent publication US20200079793A1, “COMPOUNDS AND METHODS FOR MODULATING ADENOSINE A2B RECEPTOR AND ADENOSINE A2A RECEPTOR” (CORVUS PHARMACEUTICALS, INC., priority 2018, published 2020) can be followed below.

One experiment addresses T1, A3R (Homo sapiens, UniProt P0DMS8).
T1 sequence (P0DMS8 1-318): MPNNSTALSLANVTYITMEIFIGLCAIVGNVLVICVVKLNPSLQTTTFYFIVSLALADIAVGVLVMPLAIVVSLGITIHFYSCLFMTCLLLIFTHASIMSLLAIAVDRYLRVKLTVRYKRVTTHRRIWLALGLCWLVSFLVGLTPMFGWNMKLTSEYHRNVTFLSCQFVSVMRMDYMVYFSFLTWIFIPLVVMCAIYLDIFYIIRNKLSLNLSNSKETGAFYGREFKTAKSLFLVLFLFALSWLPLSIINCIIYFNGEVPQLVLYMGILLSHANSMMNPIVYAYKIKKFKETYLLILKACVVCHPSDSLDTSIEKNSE
Nature of the experiment: Activity assay of adenosine receptor modulators, A3R cAMP (Table 1). The class given is cell-based. Here is the method:
(§1) Compounds (e.g., adenosine receptor modulators) were tested for its biological activity. The assay results in Table 1 indicate (+ means >1 μM; ++ means 100 nM to 1 μM; +++ means <100 nM).

The target of another experiment is T2, A1R (Homo sapiens, UniProt P30542).
T2 sequence (P30542 1-326): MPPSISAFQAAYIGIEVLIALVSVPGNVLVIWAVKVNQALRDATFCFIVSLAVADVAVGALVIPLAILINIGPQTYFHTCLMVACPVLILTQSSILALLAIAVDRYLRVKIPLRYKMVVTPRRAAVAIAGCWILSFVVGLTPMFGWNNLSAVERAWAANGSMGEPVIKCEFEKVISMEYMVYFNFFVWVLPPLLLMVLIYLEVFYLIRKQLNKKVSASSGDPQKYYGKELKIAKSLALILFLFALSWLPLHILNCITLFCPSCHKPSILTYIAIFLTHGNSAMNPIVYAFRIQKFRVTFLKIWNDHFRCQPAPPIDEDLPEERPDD
The experiment in a line: Activity assay of adenosine receptor modulators, A1R cAMP (Table 1). The class given is cell-based. How it is done:
as §1

The target in the next experiment is T3, Adenosine A2B Receptor (Homo sapiens, UniProt P29275).
T3 sequence (P29275 1-332): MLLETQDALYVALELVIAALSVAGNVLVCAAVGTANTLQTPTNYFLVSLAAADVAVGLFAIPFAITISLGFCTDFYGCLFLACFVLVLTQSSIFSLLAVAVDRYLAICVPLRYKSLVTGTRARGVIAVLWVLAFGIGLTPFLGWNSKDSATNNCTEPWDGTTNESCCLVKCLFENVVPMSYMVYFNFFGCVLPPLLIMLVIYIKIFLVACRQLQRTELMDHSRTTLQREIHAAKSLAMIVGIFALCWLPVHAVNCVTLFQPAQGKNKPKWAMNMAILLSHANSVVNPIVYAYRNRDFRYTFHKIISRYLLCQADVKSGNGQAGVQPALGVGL
Nature of the experiment: Activity assay of adenosine receptor modulators, Adenosine A2B Receptor (Table 1). The class given is biochemical. The conditions noted are these: cAMP; read-out: A2BR cAMP IC50. Here is the method:
as §1

The next experiment addresses Adenosine A2A Receptor (Homo sapiens, UniProt P29274). The experiment in a line: Activity assay of adenosine receptor modulators, Adenosine A2A Receptor (Table 1). Particulars: cAMP; read-out: A2AR cAMP IC50. The class given is biochemical. How it is done: as §1

Adenosine A2A Receptor, sequence (P29274 whole entry): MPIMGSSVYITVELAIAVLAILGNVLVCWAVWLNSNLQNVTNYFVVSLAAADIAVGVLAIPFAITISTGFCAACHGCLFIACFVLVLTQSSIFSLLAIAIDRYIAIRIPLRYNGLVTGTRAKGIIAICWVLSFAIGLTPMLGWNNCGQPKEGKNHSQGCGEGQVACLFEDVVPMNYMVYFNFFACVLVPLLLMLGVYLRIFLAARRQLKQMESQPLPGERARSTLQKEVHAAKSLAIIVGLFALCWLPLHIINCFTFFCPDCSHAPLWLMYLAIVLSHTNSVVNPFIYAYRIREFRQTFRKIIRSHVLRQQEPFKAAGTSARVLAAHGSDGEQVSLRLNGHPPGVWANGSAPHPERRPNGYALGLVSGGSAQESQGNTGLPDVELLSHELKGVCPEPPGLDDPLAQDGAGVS

Regarding `Cc1nc2nc(N[C@@H](C)c3cncc(F)c3)nc(C(=O)N3CC(NC(=O)C4CCOCC4)C3)c2s1` [Example 68, (S)—N-(1-(5-((1-(5-Fluoropyridin-3-yl)ethyl)amino)-2-methylthiazolo[4,5-d]pyrimidine-7-carbonyl)azetidin-3-yl)tetrahydro-2H-pyran-4-carboxamide], the IC50 is 100 to 1000 nM on A3R, above 1000 nM on A1R, 100 to 1000 nM at Adenosine A2B Receptor and below 100 nM on Adenosine A2A Receptor.

For the compound `Cc1nc2nc(N[C@@H](C)c3cncc(F)c3)nc(C(=O)N3CCCC3)c2s1` [Example 1, (S)-(5-((1-(5-Fluoropyridin-3-yl)ethyl)amino)-2-methylthiazolo[4,5-d]pyrimidin-7-yl)(pyrrolidin-1-yl)methanone], the IC50 at A3R was 100 to 1000 nM; against A1R, above 1000 nM; on Adenosine A2B Receptor, below 100 nM; on Adenosine A2A Receptor, 100 to 1000 nM.

On to `CO[C@H]1CCN(C(=O)c2nc(N[C@@H](C)c3cncc(F)c3)nc3nc(C)sc23)C1` [Example 41, (5-(((S)-1-(5-Fluoropyridin-3-yl)ethyl)amino)-2-methylthiazolo[4,5-d]pyrimidin-7-yl)((S)-3-methoxypyrrolidin-1-yl)methanone], for which the IC50 is above 1000 nM against A3R, above 1000 nM against A1R, below 100 nM at Adenosine A2B Receptor and above 1000 nM at Adenosine A2A Receptor.

As to `Cc1nc2nc(N[C@@H](C)c3cccnc3)nc(C(=O)N3CC(NC(=O)C4CCOCC4)C3)c2s1` [Example 82, N-[1-[2-Methyl-5-[[(S)-1-(3-pyridyl)ethyl]amino]thiazolo[4,5-d]pyrimidine-7-carbonyl]azetidin-3-yl]tetrahydropyran-4-carboxamide], the IC50 at A3R was above 1000 nM; against A1R, above 1000 nM; at Adenosine A2B Receptor, 100 to 1000 nM; on Adenosine A2A Receptor it was below 100 nM.

As for `Cc1nc2nc(N[C@@H](C)c3cccnc3)nc(C(=O)N3CC[C@@H](O)C3)c2s1` [Example 16, ((R)-3-Hydroxypyrrolidin-1-yl)(2-methyl-5-(((S)-1-(pyridin-3-yl)ethyl)amino)thiazolo[4,5-d]pyrimidin-7-yl)methanone], the IC50 is above 1000 nM against A3R, above 1000 nM at A1R, below 100 nM on Adenosine A2B Receptor and above 1000 nM on Adenosine A2A Receptor.

Regarding `Cc1nc2nc(N[C@@H](C)c3cncc(F)c3)nc(C(=O)N3CC[C@H](O)C3)c2s1` [Example 4, (5-(((S)-1-(5-Fluoropyridin-3-yl)ethyl)amino)-2-methylthiazolo[4,5-d]pyrimidin-7-yl)((S)-3-hydroxypyrrolidin-1-yl)methanone], the IC50 against A3R was above 1000 nM; against A1R, above 1000 nM; on Adenosine A2B Receptor, below 100 nM; at Adenosine A2A Receptor, above 1000 nM.

On to `Cc1nc2nc(N[C@@H](C)c3cncc(F)c3)nc(C(=O)N3CC[C@H](CO)C3)c2s1` [Example 50, (5-(((S)-1-(5-Fluoropyridin-3-yl)ethyl)amino)-2-methylthiazolo[4,5-d]pyrimidin-7-yl)((S)-3-(hydroxymethyl)pyrrolidin-1-yl)methanone], for which the IC50 against A3R was above 1000 nM; against A1R, above 1000 nM; on Adenosine A2B Receptor it was below 100 nM; at Adenosine A2A Receptor it was 100 to 1000 nM.

With `Cc1nc2nc(N[C@@H](C)c3cncc(F)c3)nc(C(=O)NCC3CCOCC3)c2s1` [Example 11, (S)-5-((1-(5-Fluoropyridin-3-yl)ethyl)amino)-2-methyl-N-((tetrahydro-2H-pyran-4-yl)methyl)thiazolo[4,5-d]pyrimidine-7-carboxamide], the IC50 at A3R is above 1000 nM; on A1R, 100 to 1000 nM; at Adenosine A2B Receptor, below 100 nM; at Adenosine A2A Receptor it was 100 to 1000 nM.

Take `Cc1nc2nc(N[C@@H](C)c3cncc(F)c3)nc(C(=O)N3CC(NC(=O)C(C)(C)C)C3)c2s1` [Example 37, (S)—N-(1-(5-((1-(5-Fluoropyridin-3-yl)ethyl)amino)-2-methylthiazolo[4,5-d]pyrimidine-7-carbonyl)azetidin-3-yl)pivalamide]: the IC50 against A3R is below 100 nM; at A1R it was above 1000 nM; at Adenosine A2B Receptor, below 100 nM; on Adenosine A2A Receptor, below 100 nM.

Take `CCNC(=O)C1CCN(C(=O)c2nc(N[C@@H](C)c3cncc(F)c3)nc3nc(C)sc23)C1` (stereo partly drawn) [Example 38, N-ethyl-1-(5-(((S)-1-(5-fluoropyridin-3-yl)ethyl)amino)-2-methylthiazolo[4,5-d]pyrimidine-7-carbonyl)pyrrolidine-3-carboxamide]: the IC50 at A3R is above 1000 nM; against A1R, above 1000 nM; on Adenosine A2B Receptor, below 100 nM; on Adenosine A2A Receptor, above 1000 nM.

In the case of `Cc1nc2nc(N[C@@H](C)c3cncc(F)c3)nc(C(=O)N3CC(NC(=O)c4ccccc4)C3)c2s1` [Example 58, (S)—N-(1-(5-((1-(5-Fluoropyridin-3-yl)ethyl)amino)-2-methylthiazolo[4,5-d]pyrimidine-7-carbonyl)azetidin-3-yl)benzamide], the IC50 against A3R is below 100 nM; against A1R it was above 1000 nM; on Adenosine A2B Receptor, below 100 nM; on Adenosine A2A Receptor, below 100 nM.

On to `Cc1nc2nc(N[C@@H](C)c3cccnc3)nc(C(=O)NC[C@H](C)O)c2s1` [Example 15, N—((S)-2-Hydroxypropyl)-2-methyl-5-(((S)-1-(pyridin-3-yl)ethyl)amino)thiazolo[4,5-d]pyrimidine-7-carboxamide], for which the IC50 at A3R is above 1000 nM; against A1R, above 1000 nM; on Adenosine A2B Receptor, below 100 nM; at Adenosine A2A Receptor, above 1000 nM.

`Cc1nc2nc(N[C@@H](C)c3ccccn3)nc(C(=O)N3CC(NC(=O)C(C)(C)C)C3)c2s1` [Example 62, 2,2-Dimethyl-N-[1-[2-methyl-5-[[(S)-1-(2-pyridyl)ethyl]amino]thiazolo[4,5-d]pyrimidine-7-carbonyl]azetidin-3-yl]propanamide]: the IC50 at A3R was 100 to 1000 nM; against A1R, above 1000 nM; on Adenosine A2B Receptor, below 100 nM; on Adenosine A2A Receptor, below 100 nM.

`Cc1nc2nc(N[C@@H](C)c3cncc(F)c3)nc(C(=O)N3CC(NC(=O)c4ccoc4)C3)c2s1` [Example 72, (S)—N-(1-(5-((1-(5-Fluoropyridin-3-yl)ethyl)amino)-2-methylthiazolo[4,5-d]pyrimidine-7-carbonyl)azetidin-3-yl)furan-3-carboxamide]: the IC50 against A3R is 100 to 1000 nM; on A1R it was above 1000 nM; on Adenosine A2B Receptor, 100 to 1000 nM; on Adenosine A2A Receptor it was below 100 nM.

`Cc1nc2nc(N[C@@H](C)c3cccnc3)nc(C(=O)N3CC(NC(=O)C4CCCCC4)C3)c2s1` [Example 81, N-[1-[2-Methyl-5-[[(S)-1-(3-pyridyl)ethyl]amino]thiazolo[4,5-d]pyrimidine-7-carbonyl]azetidin-3-yl]cyclohexanecarboxamide]: the IC50 was 100 to 1000 nM at A3R, above 1000 nM against A1R, below 100 nM on Adenosine A2B Receptor and below 100 nM at Adenosine A2A Receptor.

As for `Cc1nc2nc(N[C@@H](C)c3cncc(F)c3)nc(C(=O)N3CC(C(N)=O)C3)c2s1` [Example 33, (S)-1-(5-((1-(5-Fluoropyridin-3-yl)ethyl)amino)-2-methylthiazolo[4,5-d]pyrimidine-7-carbonyl)azetidine-3-carboxamide], the IC50 was above 1000 nM against A3R, above 1000 nM on A1R, below 100 nM on Adenosine A2B Receptor and above 1000 nM on Adenosine A2A Receptor.

As for `Cc1nc2nc(N[C@@H](C)c3cccnc3)nc(C(=O)NC[C@@H](C)O)c2s1` [Example 12, N—((R)-2-Hydroxypropyl)-2-methyl-5-(((S)-1-(pyridin-3-yl)ethyl)amino)thiazolo[4,5-d]pyrimidine-7-carboxamide], the IC50 on A3R is above 1000 nM; at A1R, above 1000 nM; at Adenosine A2B Receptor it was below 100 nM; at Adenosine A2A Receptor it was above 1000 nM.

With `Cc1nc2nc(N[C@@H](C)c3cccnc3)nc(C(=O)N3CC(NC(=O)NC4CCCC4)C3)c2s1` [Example 79, 1-Cyclopentyl-3-[1-[2-methyl-5-[[(S)-1-(3-pyridyl)ethyl]amino]thiazolo[4,5-d]pyrimidine-7-carbonyl]azetidin-3-yl]urea], the IC50 on A3R was 100 to 1000 nM; against A1R it was above 1000 nM; on Adenosine A2B Receptor, below 100 nM; on Adenosine A2A Receptor it was below 100 nM.
